The source made the active and inactive calls.
Tests used:
[1] = biological target: Adenosylmethionine-8-amino-7-oxononanoate aminotransferase (Mycobacterium tuberculosis, UniProt P9WQ81); assay: Mycobacterium tuberculosis BioA enzyme inhibitor Measured in Biochemical System Using Plate Reader - 2163-02_Inhibitor_Dose_CherryPick_Activity.; type: functional, Mycobacterium tuberculosis UT205
[2] = biological target: DNA repair and recombination protein RAD54-like (Homo sapiens, UniProt Q92698); assay: RAD54 Holliday junction migration blockers – biochemical, fluorescence, cherry-picked samples, dose series, confirmation (AID 651657); type: functional
Chain of DNA repair and recombination protein RAD54-like (Q92698 whole entry): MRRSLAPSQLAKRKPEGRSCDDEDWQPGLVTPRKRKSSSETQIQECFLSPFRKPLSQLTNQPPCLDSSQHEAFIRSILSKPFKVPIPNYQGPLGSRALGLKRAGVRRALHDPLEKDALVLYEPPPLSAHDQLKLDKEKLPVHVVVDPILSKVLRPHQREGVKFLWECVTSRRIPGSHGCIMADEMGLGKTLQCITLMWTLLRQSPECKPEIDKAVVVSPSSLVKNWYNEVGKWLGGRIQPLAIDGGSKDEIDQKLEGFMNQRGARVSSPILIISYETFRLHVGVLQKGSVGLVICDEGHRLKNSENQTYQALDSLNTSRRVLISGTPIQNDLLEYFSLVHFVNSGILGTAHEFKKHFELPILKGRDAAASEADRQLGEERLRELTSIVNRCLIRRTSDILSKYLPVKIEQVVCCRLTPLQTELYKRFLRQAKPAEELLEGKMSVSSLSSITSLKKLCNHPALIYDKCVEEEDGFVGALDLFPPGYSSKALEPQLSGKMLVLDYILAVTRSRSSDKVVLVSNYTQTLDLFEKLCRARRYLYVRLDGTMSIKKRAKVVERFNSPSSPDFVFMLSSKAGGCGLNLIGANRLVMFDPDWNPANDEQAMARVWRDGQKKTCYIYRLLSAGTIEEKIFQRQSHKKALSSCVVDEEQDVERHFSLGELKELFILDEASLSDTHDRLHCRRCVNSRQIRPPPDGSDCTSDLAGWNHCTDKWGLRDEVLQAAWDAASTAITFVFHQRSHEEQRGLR

[3] = biological target: T1, DNA repair protein RAD52 homolog (Homo sapiens, UniProt P43351); type: functional, biochemical
T1 sequence (P43351 whole entry): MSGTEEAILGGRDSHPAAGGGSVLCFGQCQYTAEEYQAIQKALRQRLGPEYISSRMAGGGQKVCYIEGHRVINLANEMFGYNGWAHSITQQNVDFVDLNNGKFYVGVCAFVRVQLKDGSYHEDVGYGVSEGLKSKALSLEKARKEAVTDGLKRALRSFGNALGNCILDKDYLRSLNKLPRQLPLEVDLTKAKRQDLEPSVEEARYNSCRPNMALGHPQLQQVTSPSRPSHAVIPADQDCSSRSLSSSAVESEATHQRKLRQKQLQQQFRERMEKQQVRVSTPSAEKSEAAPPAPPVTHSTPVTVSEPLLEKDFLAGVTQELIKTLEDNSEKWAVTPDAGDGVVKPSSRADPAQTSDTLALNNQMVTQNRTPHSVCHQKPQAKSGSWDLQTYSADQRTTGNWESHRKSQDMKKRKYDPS

[4] = Luminescence Cell-Based Dose Confirmation HTS to Identify Activators of 5'UTR Stem-Loop Driven Alpha-Synuclein mRNA Translation in H4 Neuroglioblastoma Cells. [Related pubchem assays: 1829 (Project Summary), 1814 (Primary HTS)]; type: functional
[5] = Luminescence Cell-Based Dose Response HTS to Identify Activators of Luciferase Translation or Activity in H4 […] Cells. [Related pubchem assays: 1829 (Project Summary), 1814 (Primary HTS)]; type: functional
H4 = assay: Luminescence Cell-Based Dose Response HTS to Identify Activators of 5'UTR Stem-Loop Driven Prion Protein mRNA Translation in H4 Neuroglioblastoma Cells. [Related pubchem assays: 1829 (Project Summary), 1814 (Primary HTS)]; type: functional; settings: Homo sapiens
[6] = Counterscreen for inhibitors of Trypanosoma brucei methionyl tRNA synthetase (MetRS): Luminescence-based cell-based high throughput dose response assay to identify compounds that are cytotoxic to Jurkat human T lymphocyte cells.; type: functional
CHO-K1 = assay: Counterscreen for antagonists of the orexin 1 receptor (OX1R; HCRTR1): Homogeneous time resolved fluorescence (HTRF)-based cell-based dose response assay to identify antagonists of the parental CHO-K1 cell line. [Related pubchem assays (depositor defined):AID434989, AID435008, AID463079, AID485270, AID492963, AID492964, AID492965, AID493232, AID504699, AID504701]; type: functional; settings: Cricetulus griseus;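 also: potency for inhibition of ATP-stimulated IP1 production as antagonists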
[7] = Counterscreen for antagonists of the orexin 1 receptor (OX1R; HCRTR1): Fluorescence-based cell-based high throughput dose response assay to identify antagonists of the parental CHO cell line. [Related pubchem assays (depositor defined):AID434989, AID435008, AID463079, AID485270, AID492963, AID492964, AID492965, AID493232, AID504699, AID504701]; type: functional
[8] = biological target: T2, Orexin/Hypocretin receptor type 1 (Homo sapiens, UniProt O43613); assay: Homogeneous Time Resolved Fluorescence (HTRF)-based cell-based high throughput dose response assay for antagonists of the orexin 1 receptor (OX1R; HCRTR1). [Related pubchem assays (depositor defined):AID434989, AID435008, AID463079, AID485270, AID492963, AID492964, AID492965, AID493232, AID504717, AID504718]; type: functional
T2 sequence (O43613 whole entry): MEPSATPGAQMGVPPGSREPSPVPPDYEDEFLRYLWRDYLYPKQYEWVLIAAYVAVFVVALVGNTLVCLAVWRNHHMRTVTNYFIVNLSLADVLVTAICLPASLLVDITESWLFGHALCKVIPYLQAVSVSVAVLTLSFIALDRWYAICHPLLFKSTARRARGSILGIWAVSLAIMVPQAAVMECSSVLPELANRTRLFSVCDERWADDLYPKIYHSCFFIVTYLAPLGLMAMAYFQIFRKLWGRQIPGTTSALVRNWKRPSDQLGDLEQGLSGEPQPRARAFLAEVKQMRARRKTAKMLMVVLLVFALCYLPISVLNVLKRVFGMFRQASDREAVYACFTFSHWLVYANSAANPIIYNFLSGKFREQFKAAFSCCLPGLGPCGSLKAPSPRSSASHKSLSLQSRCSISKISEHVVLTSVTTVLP

[9] = biological target: T2, Orexin/Hypocretin receptor type 1; assay: Fluorescence-based cell-based high throughput dose response assay for antagonists of the orexin 1 receptor (OX1R; HCRTR1). [Related pubchem assays (depositor defined):AID434989, AID435008, AID463079, AID485270, AID492963, AID492964, AID492965, AID493232, AID504717, AID504718]; type: functional
Orexin receptor type 2 [10] = biological target: T3, Orexin receptor type 2 (Homo sapiens, UniProt O43614); assay: Counterscreen assay for antagonists of the orexin 1 receptor (OX1R; HCRTR1): Fluorescence-based cell-based dose response assay for antagonists of the orexin 2 receptor (OX2R; HCRTR2), run by assay provider.; type: functional
T3 sequence (O43614 whole entry): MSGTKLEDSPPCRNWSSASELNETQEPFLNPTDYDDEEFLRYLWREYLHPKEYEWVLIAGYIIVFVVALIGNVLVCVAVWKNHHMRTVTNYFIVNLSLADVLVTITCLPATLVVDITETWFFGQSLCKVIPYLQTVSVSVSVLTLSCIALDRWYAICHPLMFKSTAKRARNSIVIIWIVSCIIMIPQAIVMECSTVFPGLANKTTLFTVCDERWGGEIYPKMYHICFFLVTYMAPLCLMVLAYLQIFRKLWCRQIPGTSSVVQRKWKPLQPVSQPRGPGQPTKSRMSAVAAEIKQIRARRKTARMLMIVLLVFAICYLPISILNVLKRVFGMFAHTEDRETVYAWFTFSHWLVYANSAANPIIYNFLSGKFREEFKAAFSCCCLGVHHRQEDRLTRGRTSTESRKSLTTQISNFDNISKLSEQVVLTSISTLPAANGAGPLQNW

Orexin receptor type 2 [11] = biological target: T3, Orexin receptor type 2; assay: Counterscreen assay for antagonists of the orexin 1 receptor (OX1R; HCRTR1): Homogeneous Time Resolved Fluorescence (HTRF)-based cell-based dose response assay for antagonists of the orexin 2 receptor (OX2R; HCRTR2), run by assay provider.; type: functional
[12] = biological target: T4, Methionyl-tRNA synthetase, putative (Trypanosoma brucei brucei, UniProt Q38C91); type: functional, Trypanosoma brucei brucei strain 927/4 GUTat10.1;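 also: Read-out by fluorescence polarization, run as a confirmatory high-throughput counterscreen; potency of MetRS inhibitors measured by reduced AMP formation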
T4 sequence (Q38C91 whole entry): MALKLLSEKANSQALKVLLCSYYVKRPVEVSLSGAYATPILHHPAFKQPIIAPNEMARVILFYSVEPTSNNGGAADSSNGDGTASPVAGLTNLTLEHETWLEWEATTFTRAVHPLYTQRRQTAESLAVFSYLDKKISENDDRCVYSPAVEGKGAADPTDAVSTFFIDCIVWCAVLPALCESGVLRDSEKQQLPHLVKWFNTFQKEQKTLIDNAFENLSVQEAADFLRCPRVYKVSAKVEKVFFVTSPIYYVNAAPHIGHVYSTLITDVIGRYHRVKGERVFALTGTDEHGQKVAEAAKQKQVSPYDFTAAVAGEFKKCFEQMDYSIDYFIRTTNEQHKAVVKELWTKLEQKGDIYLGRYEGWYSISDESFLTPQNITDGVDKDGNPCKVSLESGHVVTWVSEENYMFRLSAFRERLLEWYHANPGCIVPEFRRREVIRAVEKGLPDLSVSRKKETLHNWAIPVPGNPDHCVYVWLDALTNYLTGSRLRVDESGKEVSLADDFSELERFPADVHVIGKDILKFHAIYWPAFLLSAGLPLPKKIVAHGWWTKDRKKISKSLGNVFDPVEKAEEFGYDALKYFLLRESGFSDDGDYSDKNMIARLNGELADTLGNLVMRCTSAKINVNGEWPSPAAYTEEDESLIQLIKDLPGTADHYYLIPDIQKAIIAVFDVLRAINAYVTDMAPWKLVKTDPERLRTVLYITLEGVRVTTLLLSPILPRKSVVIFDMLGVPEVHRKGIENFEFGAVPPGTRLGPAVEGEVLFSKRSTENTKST

[13] = biological target: T5, Voltage-gated N-type calcium channel alpha-1B subunit/Amyloid beta A4 precursor protein-binding family A member 1 (Homo sapiens, UniProt Q00975+Q02410); type: protein assay
T5 sequence (Q00975 whole entry): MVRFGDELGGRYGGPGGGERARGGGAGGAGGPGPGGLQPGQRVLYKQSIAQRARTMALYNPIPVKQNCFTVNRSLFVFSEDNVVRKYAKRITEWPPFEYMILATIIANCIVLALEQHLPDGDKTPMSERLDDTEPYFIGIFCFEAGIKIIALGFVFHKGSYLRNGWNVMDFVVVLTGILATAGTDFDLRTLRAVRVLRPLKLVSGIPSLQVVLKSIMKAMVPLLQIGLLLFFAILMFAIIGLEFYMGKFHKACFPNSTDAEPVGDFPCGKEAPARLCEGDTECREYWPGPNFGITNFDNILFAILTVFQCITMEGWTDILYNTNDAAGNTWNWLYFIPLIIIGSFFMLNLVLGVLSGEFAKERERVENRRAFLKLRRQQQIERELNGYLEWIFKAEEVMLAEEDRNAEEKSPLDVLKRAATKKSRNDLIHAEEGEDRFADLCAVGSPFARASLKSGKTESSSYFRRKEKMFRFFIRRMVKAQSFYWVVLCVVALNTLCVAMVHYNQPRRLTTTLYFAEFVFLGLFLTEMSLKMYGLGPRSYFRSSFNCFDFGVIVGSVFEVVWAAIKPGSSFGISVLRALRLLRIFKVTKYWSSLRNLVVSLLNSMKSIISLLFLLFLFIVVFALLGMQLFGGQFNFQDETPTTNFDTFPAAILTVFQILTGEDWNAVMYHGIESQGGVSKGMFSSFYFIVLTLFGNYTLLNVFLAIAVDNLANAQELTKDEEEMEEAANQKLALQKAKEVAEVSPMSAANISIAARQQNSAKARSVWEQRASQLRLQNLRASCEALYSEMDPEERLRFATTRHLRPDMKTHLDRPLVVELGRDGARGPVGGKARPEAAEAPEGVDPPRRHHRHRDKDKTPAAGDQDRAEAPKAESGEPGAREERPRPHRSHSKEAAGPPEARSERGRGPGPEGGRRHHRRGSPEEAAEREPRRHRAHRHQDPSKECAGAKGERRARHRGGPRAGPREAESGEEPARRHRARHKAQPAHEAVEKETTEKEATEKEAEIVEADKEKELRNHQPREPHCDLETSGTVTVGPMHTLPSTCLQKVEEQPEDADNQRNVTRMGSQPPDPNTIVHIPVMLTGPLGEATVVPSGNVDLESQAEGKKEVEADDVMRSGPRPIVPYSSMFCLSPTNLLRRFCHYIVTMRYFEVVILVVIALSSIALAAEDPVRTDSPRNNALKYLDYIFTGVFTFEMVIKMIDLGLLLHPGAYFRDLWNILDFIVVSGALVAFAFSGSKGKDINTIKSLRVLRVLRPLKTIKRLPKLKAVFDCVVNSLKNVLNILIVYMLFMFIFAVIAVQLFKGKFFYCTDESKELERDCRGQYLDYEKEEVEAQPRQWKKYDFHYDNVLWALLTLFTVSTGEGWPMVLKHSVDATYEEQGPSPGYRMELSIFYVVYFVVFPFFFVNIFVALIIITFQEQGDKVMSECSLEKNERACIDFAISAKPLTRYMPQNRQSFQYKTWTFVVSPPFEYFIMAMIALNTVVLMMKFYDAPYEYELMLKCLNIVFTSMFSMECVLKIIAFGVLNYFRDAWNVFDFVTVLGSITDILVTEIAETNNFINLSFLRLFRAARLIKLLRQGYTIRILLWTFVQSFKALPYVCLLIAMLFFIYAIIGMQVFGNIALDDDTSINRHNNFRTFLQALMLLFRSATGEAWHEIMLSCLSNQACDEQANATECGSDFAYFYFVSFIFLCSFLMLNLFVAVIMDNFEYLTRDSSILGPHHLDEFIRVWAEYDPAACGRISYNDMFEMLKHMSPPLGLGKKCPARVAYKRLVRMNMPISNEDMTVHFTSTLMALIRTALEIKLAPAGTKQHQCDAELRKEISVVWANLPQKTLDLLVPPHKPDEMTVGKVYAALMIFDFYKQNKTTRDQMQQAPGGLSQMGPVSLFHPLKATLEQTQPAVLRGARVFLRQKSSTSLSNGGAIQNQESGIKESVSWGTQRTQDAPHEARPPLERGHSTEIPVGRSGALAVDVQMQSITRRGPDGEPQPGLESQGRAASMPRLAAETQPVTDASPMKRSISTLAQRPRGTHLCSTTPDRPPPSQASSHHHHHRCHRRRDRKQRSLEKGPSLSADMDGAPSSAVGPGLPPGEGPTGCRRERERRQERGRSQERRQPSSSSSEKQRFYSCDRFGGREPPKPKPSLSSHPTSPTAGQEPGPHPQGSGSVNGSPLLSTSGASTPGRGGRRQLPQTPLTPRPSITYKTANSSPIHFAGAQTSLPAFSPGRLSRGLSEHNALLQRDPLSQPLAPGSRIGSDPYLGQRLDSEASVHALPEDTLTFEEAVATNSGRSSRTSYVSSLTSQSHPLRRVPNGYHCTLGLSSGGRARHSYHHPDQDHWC
T5 sequence (Q02410 whole entry): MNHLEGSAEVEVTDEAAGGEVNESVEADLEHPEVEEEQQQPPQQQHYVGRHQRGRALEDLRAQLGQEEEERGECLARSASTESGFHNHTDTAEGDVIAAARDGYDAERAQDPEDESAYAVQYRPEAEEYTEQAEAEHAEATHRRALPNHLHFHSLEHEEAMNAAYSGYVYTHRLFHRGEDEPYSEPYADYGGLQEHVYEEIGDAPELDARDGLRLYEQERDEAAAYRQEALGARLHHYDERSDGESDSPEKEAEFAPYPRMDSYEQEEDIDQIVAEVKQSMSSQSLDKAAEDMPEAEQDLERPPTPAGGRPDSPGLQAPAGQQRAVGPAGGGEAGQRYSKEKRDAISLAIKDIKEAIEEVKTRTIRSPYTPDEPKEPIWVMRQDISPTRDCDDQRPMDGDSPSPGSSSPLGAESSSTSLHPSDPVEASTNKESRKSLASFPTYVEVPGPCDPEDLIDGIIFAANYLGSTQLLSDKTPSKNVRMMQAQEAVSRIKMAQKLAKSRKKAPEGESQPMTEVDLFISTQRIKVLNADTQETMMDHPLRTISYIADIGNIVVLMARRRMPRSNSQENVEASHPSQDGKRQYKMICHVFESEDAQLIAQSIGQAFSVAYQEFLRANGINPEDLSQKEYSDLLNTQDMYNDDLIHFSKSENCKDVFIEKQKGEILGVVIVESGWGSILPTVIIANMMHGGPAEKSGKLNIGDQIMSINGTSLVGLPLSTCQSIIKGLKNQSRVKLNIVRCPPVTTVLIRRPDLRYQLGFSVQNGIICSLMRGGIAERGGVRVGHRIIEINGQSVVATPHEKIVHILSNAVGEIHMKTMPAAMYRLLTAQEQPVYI

Large T antigen = Large T antigen (Simian virus 40, UniProt P03070); type: functional, Betapolyomavirus macacae;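 also: Confirmatory-stage PubChem screen for compounds that inhibit SV40 T antigen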
Chain of Large T antigen (P03070 whole entry): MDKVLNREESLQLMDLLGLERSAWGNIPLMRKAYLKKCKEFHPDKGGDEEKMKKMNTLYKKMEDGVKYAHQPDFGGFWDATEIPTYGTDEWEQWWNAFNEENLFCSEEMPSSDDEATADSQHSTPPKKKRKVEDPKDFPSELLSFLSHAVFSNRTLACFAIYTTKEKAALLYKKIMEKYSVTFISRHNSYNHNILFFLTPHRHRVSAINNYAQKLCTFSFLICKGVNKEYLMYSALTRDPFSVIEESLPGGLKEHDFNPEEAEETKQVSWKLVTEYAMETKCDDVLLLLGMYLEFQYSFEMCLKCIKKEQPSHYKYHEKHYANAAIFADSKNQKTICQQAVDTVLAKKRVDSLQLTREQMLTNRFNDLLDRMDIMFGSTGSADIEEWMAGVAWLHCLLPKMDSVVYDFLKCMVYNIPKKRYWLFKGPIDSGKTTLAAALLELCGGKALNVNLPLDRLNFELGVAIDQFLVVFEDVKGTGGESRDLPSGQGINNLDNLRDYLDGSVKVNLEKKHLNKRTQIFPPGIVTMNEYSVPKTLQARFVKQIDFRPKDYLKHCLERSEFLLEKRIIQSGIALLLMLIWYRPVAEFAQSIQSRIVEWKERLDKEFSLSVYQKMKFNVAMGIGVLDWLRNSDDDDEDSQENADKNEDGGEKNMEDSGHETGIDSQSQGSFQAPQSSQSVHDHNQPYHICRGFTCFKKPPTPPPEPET

[14] = biological target: T5, Voltage-gated N-type calcium channel alpha-1B subunit/Amyloid beta A4 precursor protein-binding family A member 1; type: protein assay; remark: listed apart in the source
[15] = biological target: T6, Apoptotic protease-activating factor 1 (Homo sapiens, UniProt O14727); type: functional
T6 sequence (O14727 whole entry): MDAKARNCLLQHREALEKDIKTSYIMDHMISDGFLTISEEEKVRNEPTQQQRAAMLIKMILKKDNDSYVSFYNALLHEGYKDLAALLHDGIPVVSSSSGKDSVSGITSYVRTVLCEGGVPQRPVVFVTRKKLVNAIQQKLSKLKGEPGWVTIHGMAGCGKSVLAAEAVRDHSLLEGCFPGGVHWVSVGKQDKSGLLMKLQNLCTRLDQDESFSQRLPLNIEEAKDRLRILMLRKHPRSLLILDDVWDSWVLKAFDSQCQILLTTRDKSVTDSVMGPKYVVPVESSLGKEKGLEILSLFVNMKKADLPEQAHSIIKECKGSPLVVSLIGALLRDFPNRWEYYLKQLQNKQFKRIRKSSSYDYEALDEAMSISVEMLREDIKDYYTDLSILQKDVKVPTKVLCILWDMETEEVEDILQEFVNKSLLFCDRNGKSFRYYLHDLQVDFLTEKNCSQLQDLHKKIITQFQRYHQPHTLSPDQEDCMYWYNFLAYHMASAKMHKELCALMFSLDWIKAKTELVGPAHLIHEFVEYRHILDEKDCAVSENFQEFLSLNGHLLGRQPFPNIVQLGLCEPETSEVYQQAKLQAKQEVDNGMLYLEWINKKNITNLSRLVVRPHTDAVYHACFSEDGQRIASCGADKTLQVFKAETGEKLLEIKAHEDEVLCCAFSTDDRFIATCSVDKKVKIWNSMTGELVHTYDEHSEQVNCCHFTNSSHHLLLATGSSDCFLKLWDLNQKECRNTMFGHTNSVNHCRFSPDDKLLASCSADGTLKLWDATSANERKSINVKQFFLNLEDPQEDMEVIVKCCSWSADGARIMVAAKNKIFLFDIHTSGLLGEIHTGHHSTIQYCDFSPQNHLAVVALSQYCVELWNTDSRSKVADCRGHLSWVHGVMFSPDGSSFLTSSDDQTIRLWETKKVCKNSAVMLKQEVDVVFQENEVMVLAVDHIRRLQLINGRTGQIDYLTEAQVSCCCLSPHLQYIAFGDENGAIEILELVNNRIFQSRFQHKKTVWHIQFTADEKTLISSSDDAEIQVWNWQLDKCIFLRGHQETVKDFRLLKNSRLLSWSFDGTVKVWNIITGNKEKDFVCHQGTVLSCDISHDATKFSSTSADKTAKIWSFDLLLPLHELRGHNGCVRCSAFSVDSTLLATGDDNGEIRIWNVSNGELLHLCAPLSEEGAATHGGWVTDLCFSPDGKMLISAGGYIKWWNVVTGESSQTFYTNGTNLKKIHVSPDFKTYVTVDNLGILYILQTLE

Chain of Adenosylmethionine-8-amino-7-oxononanoate aminotransferase (P9WQ81 whole entry): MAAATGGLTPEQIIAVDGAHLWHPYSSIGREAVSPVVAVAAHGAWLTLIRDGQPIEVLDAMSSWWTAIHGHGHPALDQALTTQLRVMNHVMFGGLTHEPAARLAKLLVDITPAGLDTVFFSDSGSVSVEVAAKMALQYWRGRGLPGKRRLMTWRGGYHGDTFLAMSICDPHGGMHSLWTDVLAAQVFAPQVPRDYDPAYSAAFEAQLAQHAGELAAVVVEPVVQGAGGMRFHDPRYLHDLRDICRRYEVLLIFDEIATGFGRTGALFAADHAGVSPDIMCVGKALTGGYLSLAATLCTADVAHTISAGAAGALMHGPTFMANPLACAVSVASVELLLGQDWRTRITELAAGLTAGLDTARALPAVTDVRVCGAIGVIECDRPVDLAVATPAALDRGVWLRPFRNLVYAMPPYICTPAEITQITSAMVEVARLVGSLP

CO/C(O)=C1\C(C)=Nc2sc(C(N)=O)c(N)c2C1c1ccncc1 (stereo unspecified)
AC50 [1]: 4.4 µM (active)

Cc1cc(C)c2c(c1)c1nnc(SCCN3CCCCC3)nc1n2C
AC50 [2]: 11 µM (active)
AC50 [3]: 6.11 µM (active)

O=c1c2ccccc2oc2ccc(NCCCN3CCOCC3)cc12
AC50 [2]: 34.2 µM (active)

CN1c2ccc(-c3cccc(F)c3)cc2[C@H]2[C@H](CCN2C(=O)C2CC2)[C@H]1CO
AC50 [1]: 0.134 µM (active)

Cc1ccc2[nH]c(-c3ccc(SCC(=O)Nc4ccc5c(c4)OCCO5)nc3)nc2c1
EC50 [4]: 1.13 µM (active)
EC50 [5]: 1.99 µM (active)
EC50 (H4): 11.3 µM (active)
IC50 [6]: 83.3 µM (inactive)

COC(=O)C1=C(c2ccccc2OCc2ccccc2)C[C@@H]2CC[C@H]1N2C(=O)NCCOc1ccccc1Cl
IC50 (CHO-K1): > 66.2 µM (inactive)
IC50 [7]: 48.6 µM (inactive)
IC50 [8]: 3.71 µM (active)
IC50 [9]: > 16.6 µM (inactive)
IC50 (Orexin receptor type 2 [10]): 3.9 µM (active)
IC50 (Orexin receptor type 2 [11]): > 50 µM (inactive)

Cc1ccccc1NC(=O)C1CCCN1S(=O)(=O)c1ccccc1C(F)(F)F (stereo unspecified)
IC50 (CHO-K1): > 66.2 µM (inactive)
IC50 [7]: > 49.8 µM (inactive)
IC50 [8]: 0.352 µM (active)
IC50 [9]: 4.95 µM (active)
IC50 (Orexin receptor type 2 [10]): 10.1 µM (inactive)
IC50 (Orexin receptor type 2 [11]): 2.34 µM (active)

Cc1ccc2nc(-c3ccc(SCC(=O)Nc4ccc5c(c4)OCCO5)nc3)[nH]c2c1
IC50 [12]: 21.5 µM (inactive)

CC1(C)[N+]([O-])=c2ccc([N+](=O)[O-])cc2=[N+]1[O-].NO
IC50 [13]: 22.1 µM (active)
IC50 (Large T antigen): 6.55 µM (active)
IC50 [14]: 0.26 µM (active)
IC50 [15]: 11.7 µM (active)
